From patent US12428406B2 (PMV Pharmaceuticals, Inc., priority 2019, dated 2025)

target: T1, p53 Y220C (Homo sapiens, UniProt P04637, Y220C); assay: In vitro DNA binding activity assay (HTRF / TR-FRET): stabilization of p53 Y220C and increase of its DNA binding activity; format: biochemical; details: recombinant His-tagged p53 Y220C DNA binding domain (aa 94-312), biotin-labeled consensus DNA, incubated at 27° C. or 29° C. for 60 min
T1 construct: The recombinant protein was a truncation mutant containing only amino acids 94-312 of p53; made in house; host or cells: E. coli
T1 sequence (P04637 94-312, change not shown): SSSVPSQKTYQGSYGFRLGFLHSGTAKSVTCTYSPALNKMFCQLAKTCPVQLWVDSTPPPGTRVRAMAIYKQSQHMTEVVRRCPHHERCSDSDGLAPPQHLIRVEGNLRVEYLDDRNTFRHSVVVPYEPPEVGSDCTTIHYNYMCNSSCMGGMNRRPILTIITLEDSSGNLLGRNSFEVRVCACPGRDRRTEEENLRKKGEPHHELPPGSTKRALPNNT
Procedure, shortened: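 E. coli His-p53 Y220C + biotin consensus DNA; anti-His-APC/SA-Eu TR-FRET. SC150 vs no-compound.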

SC150 (concentration of the compound required to increase the DNA binding activity by 50%)	Structure (SMILES)
+ (+ = 0 μM ≤ SC150 < 0.05 μM)	COc1cc(S(N)(=O)=O)ccc1NCC#Cc1cc2c(NC3CCOCC3)cc(F)cc2n1CC(F)(F)F [Compound 998A, 4-[(3-{6-fluoro-4-[(oxan-4-yl)amino]-1-(2,2,2-trifluoroethyl)-1H-indol-2-yl}prop-2-yn-1-yl)amino]-3-methoxybenzene-1-sulfonamide]
++ (++ = 0.05 μM ≤ SC150 < 0.1 μM)	COc1cc(Cl)ccc1NCC#Cc1cc2c(NC3CCN(C)CC3)cccc2n1CC(F)(F)F [Compound 512A, 2-{3-[(4-chloro-2-methoxyphenyl)amino]prop-1-yn-1-yl}-N-(1-methylpiperidin-4-yl)-1-(2,2,2-trifluoroethyl)-1H-indol-4-amine]
+ (+ = 0 μM ≤ SC150 < 0.05 μM)	COCCN(C)[C@H]1CC[C@@H](Nc2cccc3c2cc(C#CCNc2ccc(S(N)(=O)=O)cc2OCC#N)n3CC(F)(F)F)CC1 [Compound 165A, 3-(cyanomethoxy)-4-{[3-(4-{[(1S,4S)-4-[(2-methoxyethyl)(methyl)amino]cyclohexyl]amino}-1-(2,2,2-trifluoroethyl)-1H-indol-2-yl)prop-2-yn-1-yl]amino}benzene-1-sulfonamide]
+ (+ = 0 μM ≤ SC150 < 0.05 μM)	COc1cc(S(N)(=O)=O)ccc1NCC#Cc1cc2c(N[C@H]3CC[C@H](N4CCC(C(F)(F)F)CC4)CC3)cccc2n1CC(F)(F)F [Compound 440A, 3-methoxy-4-{[3-(4-{[(1R,4R)-4-[4-(trifluoromethyl)piperidin-1-yl]cyclohexyl]amino}-1-(2,2,2-trifluoroethyl)-1H-indol-2-yl)prop-2-yn-1-yl]amino}benzene-1-sulfonamide]

More lines, now with the values behind:

Structure (SMILES)	SC150 (concentration of the compound required to increase the DNA binding activity by 50%)
COc1cc(C(=O)N2CCOCC2)ccc1NCC#Cc1cc2c(N[C@@H]3CCN(C)C[C@@H]3F)cccc2n1CC(F)(F)F [Compound 909A]	+ (+ = 0 μM ≤ SC150 < 0.05 μM)
CNC(=O)c1cc(OC)c(NCC#Cc2cc3c(NC4CCN(CC(O)COC)CC4)cccc3n2CC(F)(F)F)cc1F (stereo not shown) [Compound 690A, 2-fluoro-4-{[3-(4-{[1-(2-hydroxy-3-methoxypropyl)piperidin-4-yl]amino}-1-(2,2,2-trifluoroethyl)-1H-indol-2-yl)prop-2-yn-1-yl]amino}-5-methoxy-N-methylbenzamide]	+ (+ = 0 μM ≤ SC150 < 0.05 μM)
CNC(=O)c1ccc(NCC#Cc2cc3c(N[C@H]4CC[C@H](N(C)CCOC)CC4)cccc3n2CC(F)(F)F)c(OC)c1 [Compound 151A, 3-methoxy-N-methyl-4-{[3-(4-{[(1R,4R)-4-[(2-methoxyethyl) (methyl)amino]cyclo-hexyl]amino}-1-(2,2,2-trifluoroethyl)-1H-indol-2-yl)prop-2-yn-1-yl]amino}benzamide]	+ (+ = 0 μM ≤ SC150 < 0.05 μM)
COc1cc(S(=O)(=O)N(C)C)ccc1NCC#Cc1cc2c(NC3CCN(C(=O)CO)CC3)cccc2n1CC(F)(F)F [Compound 730A]	+ (+ = 0 μM ≤ SC150 < 0.05 μM)
COc1cc(S(C)(=O)=O)ccc1NCC#Cc1cc2c(NC(=O)N[C@H]3CC[C@H](N(C)C)CC3)cccc2n1CC(F)(F)F [Compound 12A, 3-(2-{3-[(4-methanesulfonyl-2-methoxyphenyl)amino]prop-1-yn-1-yl}-1-(2,2,2-trifluoroethyl)-1H-indol-4-yl)-1-[(1R,4R)-4-(dimethylamino)cyclohexyl]urea]	+ (+ = 0 μM ≤ SC150 < 0.05 μM)
CNC(=O)c1ccc(NCC#Cc2cc3c(N[C@H]4CC[C@H](N5CCC6(CCOCC6)CC5)CC4)cccc3n2CC(F)(F)F)c(OC)c1 [Compound 416A, 3-methoxy-N-methyl-4-{[3-(4-{[(1R,4R)-4-{3-oxa-9-azaspiro[5.5]undecan-9-yl}cyclohexyl]amino}-1-(2,2,2-trifluoroethyl)-1H-indol-2-yl)prop-2-yn-1-yl]amino}benzamide]	+ (+ = 0 μM ≤ SC150 < 0.05 μM)
